Values joined by “and” are separate entries in the source; they are usually repeats but may differ in a detail not shown here. Identical values can stand only once. Inconclusive results and toxic doses are left out.

In this assay the test system is P388 leukemia ip, CD2F1 mice, survival T/C. The assay is described as follows: NCI In Vivo Anticancer Drug Screen. Data for tumor model P388 Leukemia (intraperitoneal) in CD2F1 (CDF1) mice. The following applies: endpoint: median survival time, higher = longer survival. In outline:
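Mice carrying the transplanted tumor received test compound or vehicle. Survival was recorded in each group, and the value is the treated-group measurement divided by that of the vehicle-treated control group.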

[1] abbreviates: dose: 50.0 mg/kg/injection, schedule: Q01DX005 (ip), vehicle: saline with Tween-80.
Setting [2] is: dose: 25.0 mg/kg/injection, schedule: Q01DX005 (ip), vehicle: Klucel (hydroxypropylcellulose) (HPC).
[3] abbreviates: dose: 50.0 mg/kg/injection, schedule: Q01DX005 (ip), vehicle: Klucel (hydroxypropylcellulose) (HPC).
[4] abbreviates: dose: 100.0 mg/kg/injection, schedule: Q01DX005 (ip), vehicle: Klucel (hydroxypropylcellulose) (HPC).
Setting [5] is: dose: 50.0 mg/kg/injection, schedule: Q01DX009 (ip), vehicle: saline.
Where [6] appears, read: dose: 100.0 mg/kg/injection, schedule: Q01DX009 (ip), vehicle: saline.
Setting [7] is: dose: 50.0 mg/kg/injection, schedule: Q01DX005 (ip), vehicle: saline.
Where [8] appears, read: dose: 6.25 mg/kg/injection, schedule: Q01DX005 (ip), vehicle: Klucel (hydroxypropylcellulose) (HPC).
Where [9] appears, read: dose: 12.5 mg/kg/injection, schedule: Q01DX005 (ip), vehicle: Klucel (hydroxypropylcellulose) (HPC).
Setting [10] is: dose: 50.0 mg/kg/injection, schedule: Q01DX009 (ip), vehicle: suspension in saline.
Where [11] appears, read: dose: 100.0 mg/kg/injection, schedule: Q01DX009 (ip), vehicle: suspension in saline.

For `Cc1ccc2nc(N/N=C/c3cccc(C)n3)cc(C)c2c1`, the T/C runs as follows: (dose: 12.5 mg/kg/injection, schedule: Q01DX005 (ip), vehicle: saline with Tween-80) 100 % of control; (dose: 25.0 mg/kg/injection, schedule: Q01DX005 (ip), vehicle: saline with Tween-80) 90 % of control; under setting [1], 100 % of control and 93 % of control; (dose: 100.0 mg/kg/injection, schedule: Q01DX005 (ip), vehicle: saline with Tween-80) 100 % of control.
On to `CCN(CC)CC.[CH-]1CCCCC1.[CH-]1CCCCC1.[CH3-].[Cl-].[I-].[Sn+4]`, for which the T/C reads like this: (dose: 6.0 mg/kg/injection, schedule: Q01DX005 (ip), vehicle: saline with Tween-80) 101 % of control; (dose: 12.0 mg/kg/injection, schedule: Q01DX005 (ip), vehicle: saline with Tween-80) 102 % of control.
Turning to `CSc1nc(=S)c2[nH]c(C)nc2[nH]1`, the T/C is, setting by setting: (dose: 6.25 mg/kg/injection, schedule: Q04DX003 (ip), vehicle: saline) 96 % of control; (dose: 12.5 mg/kg/injection, schedule: Q04DX003 (ip), vehicle: saline) 96 % of control; (dose: 25.0 mg/kg/injection, schedule: Q04DX003 (ip), vehicle: saline) 100 % of control; (dose: 50.0 mg/kg/injection, schedule: Q04DX003 (ip), vehicle: saline) 100 % of control.
`Cc1cc2c3c([nH]c2cc1[N+](=O)[O-])CCCC3=O`: the T/C by setting is: under setting [2], 88 % of control; under setting [3], 88 % of control; under setting [4], 86 % of control; (dose: 200.0 mg/kg/injection, schedule: Q01DX005 (ip), vehicle: Klucel (hydroxypropylcellulose) (HPC)) 90 % of control.
For the compound `CC1CN1P(=O)(OCCCl)N1CC1C` (stereo not drawn), the T/C (dose: 44.0 mg/kg/injection, schedule: Q04DX003 (ip), vehicle: saline) is 113 % of control; the T/C under setting [5] was 120 % of control; the T/C (dose: 66.0 mg/kg/injection, schedule: Q04DX003 (ip), vehicle: saline) is 113 % of control; the T/C under setting [6] is 120 % of control; the T/C (dose: 100.0 mg/kg/injection, schedule: Q04DX003 (ip), vehicle: saline) was 118 % of control; the T/C (dose: 150.0 mg/kg/injection, schedule: Q04DX003 (ip), vehicle: saline) was 86 % of control.
As for `CCOC(=O)CN=NNc1ccc([N+](=O)[O-])cc1`, the T/C runs as follows: (dose: 100.0 mg/kg/injection, schedule: Q01DX001 (ip), vehicle: Klucel (hydroxypropylcellulose) (HPC)) 106 % of control; (dose: 200.0 mg/kg/injection, schedule: Q01DX001 (ip), vehicle: Klucel (hydroxypropylcellulose) (HPC)) 109 % of control; (dose: 400.0 mg/kg/injection, schedule: Q01DX001 (ip), vehicle: Klucel (hydroxypropylcellulose) (HPC)) 109 % of control.
In the case of `CN1C2C=C(c3ccc(C(F)(F)F)cc3)CC1CC2` (stereo not drawn), the T/C runs as follows: under setting [2], 100 % of control and 107 % of control; under setting [3], 106 % of control; under setting [7], 102 % of control; under setting [4], 98 % of control; (dose: 100.0 mg/kg/injection, schedule: Q01DX005 (ip), vehicle: saline) 104 % of control.
As to `COc1cccc2c1C(=O)c1c(O)c3c(c(O)c1C2=O)C[C@@](O)(C(C)=O)C[C@@H]3OC1CC(N=C(N)CCSSCCC(N)=NC2CC(O[C@H]3C[C@](O)(C(C)=O)Cc4c(O)c5c(c(O)c43)C(=O)c3c(OC)cccc3C5=O)OC(C)C2O)C(O)C(C)O1` (stereo partly drawn), the T/C was 115 % of control (dose: 3.12 mg/kg/injection, schedule: Q04DX003 (ip), vehicle: distilled water + Tween-80); 108 % of control and 122 % of control (dose: 6.25 mg/kg/injection, schedule: Q04DX003 (ip), vehicle: distilled water + Tween-80); 118 % of control (dose: 12.5 mg/kg/injection, schedule: Q04DX003 (ip), vehicle: distilled water + Tween-80); 116 % of control (dose: 25.0 mg/kg/injection, schedule: Q04DX003 (ip), vehicle: distilled water + Tween-80); 105 % of control (dose: 50.0 mg/kg/injection, schedule: Q04DX003 (ip), vehicle: distilled water + Tween-80); 121 % of control (dose: 100.0 mg/kg/injection, schedule: Q04DX003 (ip), vehicle: distilled water + Tween-80).
In the case of `O=NNc1ccc(Cl)cn1`, the T/C is, setting by setting: (dose: 3.12 mg/kg/injection, schedule: Q01DX009 (ip), vehicle: water) 123 % of control; (dose: 12.5 mg/kg/injection, schedule: Q01DX009 (ip), vehicle: water) 187 % of control.
For the compound `O=C(O)CC(O)(CC(=O)O)C(=O)O`, the T/C runs as follows: (dose: 0.12 % in 0.5 ml injection vol, schedule: Q01DX009 (ip), vehicle: water) 100 % of control; (dose: 0.25 % in 0.5 ml injection vol, schedule: Q01DX009 (ip), vehicle: water) 99 % of control and 94 % of control; (dose: 0.5 % in 0.5 ml injection vol, schedule: Q01DX009 (ip), vehicle: water) 88 % of control and 90 % of control and 94 % of control.
In the case of `CCc1nc(N)nc(N)c1-c1ccc(N2CCOCC2)c(N=[N+]=[N-])c1`, the T/C under setting [8] is 101 % of control, the T/C under setting [9] is 100 % of control and the T/C under setting [2] was 97 % of control.
For the compound `O=C1C=CC(=O)C(N(CCO)CCO)=C1`, the T/C (dose: 12.5 mg/kg/injection, schedule: Q01DX009 (ip), vehicle: saline) was 99 % of control; the T/C (dose: 12.5 mg/kg/injection, schedule: Q01DX009 (ip), vehicle: suspension in saline) was 100 % of control; the T/C (dose: 25.0 mg/kg/injection, schedule: Q01DX009 (ip), vehicle: saline) is 94 % of control; the T/C (dose: 25.0 mg/kg/injection, schedule: Q01DX009 (ip), vehicle: suspension in saline) was 103 % of control; the T/C under setting [5] is 95 % of control; the T/C under setting [10] was 113 % of control. For the same compound, the T/C runs as follows: under setting [6], 95 % of control; under setting [11], 109 % of control and 111 % of control.
Consider `Cc1ccc(N2C(=O)CCSC2=S)cc1C`, for which the T/C was 108 % of control under setting [10]; 89 % of control under setting [11]; 99 % of control (dose: 200.0 mg/kg/injection, schedule: Q01DX009 (ip), vehicle: suspension in saline).
Consider `NS(=O)(=O)c1ccc(N=Nc2nc3[nH]c(=O)[nH]c(=O)c3[nH]2)cc1`, for which the T/C runs as follows: under setting [8], 106 % of control; under setting [9], 102 % of control; under setting [2], 107 % of control.
`Cc1cc2nc3ccc(N(C)C)cc3nc2cc1N`: the T/C is, setting by setting: (dose: 12.5 mg/kg/injection, schedule: Q01DX005 (ip), vehicle: saline) 96 % of control; (dose: 25.0 mg/kg/injection, schedule: Q01DX005 (ip), vehicle: saline) 100 % of control; under setting [1], 95 % of control; under setting [7], 112 % of control.
For the compound `O=C(O)CCC1NC(=O)NC1=O` (stereo not drawn), the T/C reads like this: (dose: 50.0 mg/kg/injection, schedule: Q01DX001 (ip), vehicle: saline) 100 % of control; (dose: 100.0 mg/kg/injection, schedule: Q01DX001 (ip), vehicle: saline) 103 % of control; (dose: 200.0 mg/kg/injection, schedule: Q01DX001 (ip), vehicle: saline) 104 % of control; (dose: 400.0 mg/kg/injection, schedule: Q01DX001 (ip), vehicle: saline) 94 % of control.
On to `CCn1c(C)nc2c(N)cc(C(F)(F)F)cc21` (tested in a mixture with another compound), for which the T/C was 95 % of control (dose: 30.0 mg/kg/injection, schedule: Q01DX005 (ip), vehicle: Klucel (hydroxypropylcellulose) (HPC)); 100 % of control (dose: 60.0 mg/kg/injection, schedule: Q01DX005 (ip), vehicle: Klucel (hydroxypropylcellulose) (HPC)); 99 % of control (dose: 120.0 mg/kg/injection, schedule: Q01DX005 (ip), vehicle: Klucel (hydroxypropylcellulose) (HPC)).
Consider `CCOc1c(N=Nc2ccccc2Cl)c(C)nn1C(=S)S`, for which the T/C is 95 % of control (dose: 15.0 mg/kg/injection, schedule: Q01DX005 (ip), vehicle: Klucel + Tween-80); 100 % of control (dose: 30.0 mg/kg/injection, schedule: Q01DX005 (ip), vehicle: Klucel + Tween-80); 96 % of control (dose: 60.0 mg/kg/injection, schedule: Q01DX005 (ip), vehicle: Klucel + Tween-80).
With `O=C1OCC(C(=O)N2Cc3cc4ccccc4nc3C2)C1CO` (stereo not drawn), the T/C is, setting by setting: (dose: 100.0 mg/kg/injection, schedule: Q01DX009 (ip), vehicle: saline with Tween-80) 94 % of control; (dose: 200.0 mg/kg/injection, schedule: Q01DX009 (ip), vehicle: saline with Tween-80) 115 % of control; (dose: 400.0 mg/kg/injection, schedule: Q01DX009 (ip), vehicle: saline with Tween-80) 105 % of control.

These data come from PubChem BioAssay AID330 (DTP/NCI, 2004).
